Data taken from patent US6133258A, “Inhibitor of kainic acid neurotoxicity and pyridothiazine derivative” (Yamanouchi Pharmaceutical Co., Ltd., priority 1995, dated 2000).

Tests used:
[1] = test system: NMDA excitotoxicity or experimental animal models for epilepsy, cerebral ischemia; conditions: literature; cited from earlier work
[2] = test system: AMPA receptor; conditions: literature; cited from earlier work
[3] = test system: experimental animal model for cerebral ischemia; conditions: literature; cited from earlier work
[4] = test system: primary rat hippocampal cultures; assay: Inhibition of kainic acid neurotoxicity (LDH release) in primary rat hippocampal cultures; format: cell-based; conditions: Hippocampal neuron; 300 μM kainic acid, 24 hours, primary rat hippocampal neurons, lactate dehydrogenase release
Procedure: 1) Inhibition of kainic acid neurotoxicity
The effect of the compound of the present invention for inhibiting kainic acid neurotoxicity was studied using primary rat hippocampal cultures.
(1) Incubation conditions
The hippocampus was dissected from a brain of the 18 to 20-day-old fetal rat and was subjected to enzyme treatment with papain and DNase I to disperse the cells. The cells so obtained were suspended in MEM containing 10% serum and plated on poly-L-lysine coated 48-well plates at a density of 4×10^5 cells/cm^2. Twenty four hours later, the medium was replaced by a serum-free medium. The medium was changed twice a week. The cells which were cultured for at least 6 days were provided for the following test.
(2) Inhibition against kainic acid neurotoxicity
Neurotoxicity was assessed by an activity of lactate dehydrogenase released into the culture medium from destroyed cells. As a control, neurons which were exposed to a serum-free medium containing 300 μM kainic acid for 24 hours were used. Each compound, together with 300 μM kainic acid, was allowed to act on the neuron for 24 hours and inhibitory action of each compound against kainic acid neurotoxicity was evaluated.

[5] = test system: DBA/2 mice; assay: Audiogenic seizure inhibitory action (anticonvulsant effect) in DBA/2 mice; format: in vivo; conditions: Mus musculus, ip, 0.75 h; i.p. 45 minutes before sound stimulation (12 kHz, 120 dB); ten male 21 to 28-day-old mice; read-out: Anticonvulsant effect for audiogenic seizure in DBA/2 mice, minimum effective dose
Procedure: 2) Measurement of audiogenic seizure inhibitory action in DBA/2 mice
The test compound was suspended in a 0.5% methylcellulose solution and the resulting suspension was intraperitoneally administered 45 minutes before the stimulation by the sound. The drug efficacy was evaluated by presence or absence of the appearance of seizure and the minimum effective dose was determined.

[6] = test system: AMPA-induced cell death; conditions: literature; cited from earlier work

SMILES | effect in experimental animal model for cerebral ischemia [3] | IC50 [4] [nM] | minimal effective dose [5] [mg/kg] | further results
NC(CCCP(=O)(O)O)C(=O)O (centres unmarked) [2-amino-5-phosphonovaleric acid] | – | – | – | protective effect against NMDA excitotoxicity or in experimental animal models for epilepsy, cerebral ischemia, etc. [1]: protective against NMDA excitotoxicity or in experimental animal models for epilepsy, cerebral ischemia, etc.
NC(CCCCCP(=O)(O)O)C(=O)O (centres unmarked) [2-amino-7-phosphonoheptanoic acid] | – | – | – | protective effect against NMDA excitotoxicity or in experimental animal models for epilepsy, cerebral ischemia, etc. [1]: protective against NMDA excitotoxicity or in experimental animal models for epilepsy, cerebral ischemia, etc.
CC1=NN=C(c2ccc(N)cc2)c2cc3c(cc2C1)OCO3 [GYKI52466] | effective in an experimental animal model for cerebral ischemia | – | – | effect on AMPA receptor desensitization [2]: counteracts the inhibition of desensitization by cyclothiazide
CN(c1ccc(Cl)cc1)c1nc(=O)c2cccnc2s1 [Example 64, 2-[N-(4-Chlorophenyl)-N-methylamino]-4H pyrido[3,2-e]-1,3-thiazin-4-one] | – | 1400 | 10 | –
Cc1cccc(N(C)c2nc(=O)c3cccnc3s2)c1 [Example 72, 2-[N-Methyl-N-(3-methylphenyl)amino]-4H-pyrido[3,2-e]-1,3-thiazin-4-one] | – | 1900 | 30 | –
CN(c1ccc(Br)cc1)c1nc(=O)c2cccnc2s1 [16-2), 2-[N-(4-Bromophenyl)-N-methylamino]-4H-pyrido[3,2-e]-1,3-thiazin-4-one] | – | 1000 | 30 | –
NC1CCN(O)C1=O (centres unmarked) [HA-966] | effective in an experimental animal model for cerebral ischemia | – | – | –
NS(=O)(=O)c1cc2c(cc1Cl)NC(C1CC3C=CC1C3)NS2(=O)=O (centres unmarked) [cyclothiazide] | – | – | – | effect on AMPA receptor desensitization [2]: desensitization inhibitor; effect on AMPA-induced cell death [6]: accelerate AMPA-induced cell death
NS(=O)(=O)c1cccc2c1c([N+](=O)[O-])cc1[nH]c(=O)c(=O)[nH]c12 [NBQX] | effective in the experimental animal model for cerebral ischemia | – | – | –
